Source: patent EP4722219A1 (Gan & Lee Pharmaceuticals Co., Ltd., priority 2023, dated 2024)

These molecules were tested against CRBN protein (Homo sapiens, UniProt Q96SW2) (assay: Binding activity to E3 ubiquitin ligase CRBN (HTRF competitive binding kit, Thalidomide-Red)). Settings: not given.
Source text: Binding activity of the E3 ligase inhibitor disclosed in the present invention to E3 ubiquitin ligase CRBN
CRBN binding activity test kit (CEREBLON BINDING KITS (PE, 64BD CRBN PEG).
The detection is based on homogeneous time-resolved fluorescence (HTRF) technology.
This kit uses a europium-labeled GST antibody (GST Eu Cryptate Antibody) as the donor and XL665-labeled thalidomide (Thalidomide-Red reagent) as the receptor. The donor binds to the GST-tagged CRBN protein.
The donor and receptor were each diluted 50-fold using the buffer provided in the kit (PROTAC binding buffer 1). The CRBN protein was diluted 45-fold. An 8mM solution of the compound disclosed herein was diluted 10-fold using the diluent provided in the kit (1X diluent), followed by 7 successive 5-fold serial dilutions of the resulting solution.
The ratio of the acceptor and donor emission signals was calculated for each individual well.
IC50 values was calculated based on compound concentration, Ratio, and coefficient of variation using GraphPad Prism.

Row | Molecule | IC50
1 | COc1c(C(=O)N[C@H]2CCC(=O)NC2=O)ccc2c1OC[C@H]1CNCCN21 [Compound B6, (R)-N-((S)-2,6-Dioxyhesperidin-3-yl)-7-methoxy-1,2,3,4,4a,5-hexahydrobenzo[b]pyrazino[1,2-d][1,4]oxazine-8-carboxamide] | 49.1 µM
2 | COc1cc2c(cc1C(=O)N[C@H]1CCC(=O)NC1=O)OC1(CCNCC1)CC2 [Compound A12, (S)-N-(2,6-dioxohesperidin-3-yl)-6-methoxyspiro[chroman-2,4'-pyridine]-7-carboxamide] | 20.3 µM
3 | O=C1CCC(N2Cc3c(ccc4c3OCC43CCC4(CCNCC4)CC3)C2=O)C(=O)N1 (stereo not drawn) [Compound D8] | 0.56 µM
4 | Cn1c(=O)n(C2CCC(=O)NC2=O)c2ccc3c(c21)C1(CCNCC1)CO3 (stereo not drawn) [Compound D4, 3-(1-Methyl-2-oxo-1,2-dihydro-3H,7H-spiro[benzofuran[4,5-d]imidazole-8,4'-piperidine]-3-yl)piperidine-2,6-dione] | 2.3 µM
5 | COc1cc2c(cc1C(=O)N[C@H]1CCC(=O)NC1=O)OCC21CCNCC1 [Compound A10, (S)-N-(2,6-dioxohesperidin-3-yl)-5-methoxy-2H-spiro[benzofuran-3,4'-piperidine]-6-carboxamide] | 24.5 µM
6 | O=C1CC[C@H](NC(=O)c2ccc3c(c2F)OC[C@H]2CNCCN32)C(=O)N1 [Compound B5, (R)-N-((S)-2,6-Dioxyhesperidin-3-yl)-7-fluoro-1,2,3,4,4,4a,5-hexahydrobenzo[b]pyrazino[1,2-d][1,4]oxazine-8-carboxamide] | 60 µM
7 | O=C1CC[C@H](NC(=O)c2cc3c(cc2F)CCC2(CNC2)O3)C(=O)N1 [Compound A7, (S)-N-(2,6-dioxopiperidin-3-yl)-6-fluoro-spiroazetidine-3,2-dihydropyridine-7-carboxamide] | 27.4 µM
8 | Cn1c(=O)n(C2CCC(=O)NC2=O)c2cc3c(cc21)OC1(CCNCC1)CC3 (stereo not drawn) [Compound D5] | 0.66 µM
9 | COc1cc2c(cc1C(=O)N[C@H]1CCC(=O)NC1=O)OC[C@H]1CNCCN21 [Compound B4, (R)-N-((S)-2,6-Dioxyhesperidin-3-yl)-O-9-methoxy-1,2,3,4,4a,5-hexahydrobenzo[b]pyrazino[1,2-d][1,4]oxazine-8-carboxamide] | 10.9 µM
10 | O=C1CC[C@H](NC(=O)c2ccc3c(c2)OC[C@@H]2CNCCN32)C(=O)N1 [Compound B1] | 40.3 µM
11 | O=C1CC[C@H](NC(=O)c2cc3c(cc2F)OC2(CCNCC2)CC3)C(=O)N1 [Compound A5, (S)-N-(2,6-dioxopiperidin-3-yl)-7-fluoro-spiro[2,4'-piperidine]-6-carboxamide] | 20.8 µM
12 | COc1cc2c(cc1C(=O)N[C@H]1CCC(=O)NC1=O)COC[C@H]1CNCCN21 [Compound B10, (R)-N-((S)-2,6-Dioxopiperidin-3-yl)-10-methoxy-1,2,3,4,4a,5-hexahydro-7H-benzo[e]pyrazino[2,1-c][1,4]oxacyclopropane-9-amide] | 22.4 µM

Same assay, conditions: competition with XL665-labeled thalidomide for GST-tagged CRBN protein, HTRF, 3 hours at room temperature

Row | Molecule | IC50
13 | O=C1CCC(Nc2ccc3c(c2)CCC2(CCNCC2)O3)C(=O)N1 (stereo not drawn) [Compound C3] | 5.53 µM
14 | O=C1CCC(Nc2ccc3c(c2)OC2(CCNCC2)CC3)C(=O)N1 (stereo not drawn) [Compound C4, 3-(Spiro[2,4'-piperidino]-7-ylamino)piperidine-2,6-dione] | 10.1 µM
15 | COc1c(C(=O)N[C@H]2CCC(=O)NC2=O)ccc2c1OCC21CCNCC1 [Compound A8, (S)-N-(2,6-dioxohesperidin-3-yl)-7-methoxy-2H-spiro[benzofuran-3,4'-piperidine]-6-carboxamide] | 24.6 µM
16 | CN(C(=O)c1ccc2c(c1)OC[C@H]1CNCCN21)[C@H]1CCC(=O)NC1=O [Compound B7, (R)-N-((S)-2,6-Dioxyhesperidin-3-yl)-N-methyl-1,2,3,4,4a,5-hexahydrobenzo[b]pyrazino[1,2-d][1,4]oxazine-8-carboxamide] | 5.32 µM

Same assay, conditions: competition with XL665-labeled thalidomide for GST-tagged CRBN protein, HTRF, 3 hours at room temperature; read-out: IC50

Row | Molecule | IC50
17 | O=C1CC[C@H](NC(=O)c2cc3c(cc2F)N2CCNC[C@@H]2CO3)C(=O)N1 [Compound B3, (R)-N-((S)-2,6-dioxyhesperidin-3-yl)-9-fluoro-1,2,3,4,4,4a,5-hexahydrobenzo[b]pyrazino[1,2-d][1,4]oxazine-8-carboxamide] | 45.1 µM
18 | O=C1CC[C@H](NC(=O)c2cc3c(cc2F)CCC2(CCNCC2)O3)C(=O)N1 [Compound A6, (S)-N-(2,6-dioxopiperidin-3-yl)-6-fluorospiro[chroman-2,4'-piperidine]-7-carboxamide] | 35.3 µM
19 | Cn1c(=O)n(C2CCC(=O)NC2=O)c2ccc3c(c21)OC[C@H]1CNCCN31 (stereo partly drawn) [Compound D7] | 0.4 µM
20 | O=C1CCC(Nc2ccc3c(c2)COC[C@H]2CNCCN32)C(=O)N1 (stereo partly drawn) [Compound C13] | 8.39 µM
21 | O=C1CC[C@H](NC(=O)c2cc3c(cc2F)N2CCNC[C@H]2CO3)C(=O)N1 [Compound B8, (S)-N-((S)-2,6-Dioxyhesperidin-3-yl)-9-fluoro-1,2,3,4,4,4a,5-hexahydrobenzo[b]pyrazino[1,2-d][1,4]oxazine-8-carboxamide] | 27 µM
22 | O=C1CCC(Nc2ccc3c(c2)OC[C@@H]2CNCCN32)C(=O)N1 (stereo partly drawn) [Compound C16, 3-(((S)-1,2,3,4,4a,5-hexahydrobenzo[b]pyrazine[1,2-d][1,4]oxazine-8-yl)amino)piperidine-2,6-dione] | 2.16 µM
23 | O=C1CCC(Nc2ccc3c(c2)OCC32CCNCC2)C(=O)N1 (stereo not drawn) [Compound C1] | 1.9 µM
24 | O=C1CC[C@H](NC(=O)c2ccc3c(c2)OCC[C@H]2CNCCN32)C(=O)N1 [Compound B11, (S)-N-((S)-2,6-Dioxopiperidin-3-yl)-2,3,4,4a,5,6-hexahydro-1H-benzo[b]pyrazino[1,2-d][1,4]oxazepine-9-carboxamide] | 54.8 µM
25 | O=C1CCC(N2Cc3c(ccc4c3OCC43CCC4(CC3)CNC4)C2=O)C(=O)N1 (stereo not drawn) [Compound D9, 3-(6''-oxo-6''-,8''-dihydro-2''-H,7''-H-dipyrazolo[azetidin-3,1'-cyclohexane-4'-, 3"-furan[2,3-e]isoindole]-7"-yl)piperidine-2,6-dione] | 0.65 µM
26 | Cn1c(=O)n(C2CCC(=O)NC2=O)c2ccc3c(c21)OCC31CCNCC1 (stereo not drawn) [Compound D2, 3-(1-Methyl-2-oxo-1,2-dihydro-3H,7H-spiro[benzofuro[6,7-d]imidazole-6,4'-piperidine]-3-yl)piperidine-2,6-dione] | 0.028 µM
27 | O=C1CCC(Nc2ccc3c(c2)OC2(CC3)CNC2)C(=O)N1 (stereo not drawn) [Compound C7, 3-(Spiro[azetidin-3,2'-chroman]-7'-ylamino)piperidine-2,6-dione] | 10.2 µM
28 | O=C1CC[C@H](NC(=O)c2ccc3c(c2F)OCC32CCNCC2)C(=O)N1 [Compound A1, (S)-N-(2,6-dioxopiperidin-3-yl)-7-fluoro-2H-spiro[benzofuran-3,4'-piperidine]-6-carboxamide] | 15.5 µM
29 | O=C1CCC(Nc2ccc3c(c2)OCC2(CCNCC2)C3)C(=O)N1 (stereo not drawn) [Compound C6, 3-(Spiro[benzopyran-3,4'-piperidine]-7-ylamino)piperidine-2,6-dione] | 3.38 µM
30 | O=C1CC[C@H](NC(=O)c2cc3c(cc2F)C2(CCNCC2)CO3)C(=O)N1 [Compound A4, (S)-N-(2,6-dioxopiperidin-3-yl)-5-fluoro-2H-spiro[benzofuran-3,4'-piperidine]-6-carboxamide] | 23.5 µM
31 | O=C1CC[C@H](NC(=O)c2cc3c(cc2F)OCC32CCNCC2)C(=O)N1 [Compound A3, (S)-N-(2,6-dioxopiperidin-3-yl)-6-fluoro-2H-spiro[benzofuran-3,4'-piperidine]-5-carboxamide] | 52.8 µM
32 | Cn1c(=O)n(C2CCC(=O)NC2=O)c2ccc3c(c21)OC[C@H]1CNCCN31 (stereo in doubt) [Compound D6, 3-((R)-3-Methyl-2-oxo-2,3,5,5a,6,7,8,9-octahydro-1H-imidazo[4',5':5,6]benzo[1,2-b]pyrazino[1,2-d][1,4]oxazine-1-yl)piperidine-2,6-dione] | 0.55 µM
33 | (R) -N-((S)-2,6-Dioxyhesperidin-3-yl)-9-methoxy-6-methyl-2,3,4,4a,5,6-hexahydro-1H-pyrazino[1,2-a]quinoline-8-carboxamide [Compound B12] | 37.3 µM
34 | O=C1CCC(Nc2ccc3c(c2)N2CCNC[C@@H]2CCO3)C(=O)N1 (stereo partly drawn) [Compound C11, 3-(((S)-2,3,4,4a,5,6-Hexahydro-1H-benzo[b]pyrazine[1,2-d][1,4]oxacyclopropane-10-yl)amino)piperidine-2,6-dione] | 21.1 µM
35 | COc1cc2c(cc1C(=O)N[C@H]1CCC(=O)NC1=O)C1(CCNCC1)CO2 [Compound A9, (S)-N-(2,6-dioxopiperidin-3-yl)-6-methoxy-2H-spiro[benzofuran-3,4'-piperidine]-5-carboxamide] | 29.1 µM
36 | O=C1CCC(Nc2ccc3c(c2)OC2(CCNCC2)C3)C(=O)N1 (stereo not drawn) [Compound C5, 3-((3H-spiro[benzofuran-2,4'-piperidine]-6-yl)amino)piperidine-2,6-dione] | 5.45 µM
37 | O=C1CC[C@H](NC(=O)c2c(F)ccc3c2OCC32CCNCC2)C(=O)N1 [Compound A2, (S)-N-(2,6-dioxopiperidin-3-yl)-6-fluoro-2H-spiro[benzofuran-3,4'-piperidine]-7-carboxamide] | 11.9 µM
38 | CN(c1ccc2c(c1)OC[C@H]1CNCCN21)C1CCC(=O)NC1=O (stereo partly drawn) [Compound C10, 3-(((R)-1,2,3,4,4a,5-Hexahydrobenzo[b]pyrazino[1,2-d][1,4]oxazine-8-yl)(methyl)amino)piperidine-2,6-dione] | 2.06 µM
39 | O=C1CCC(n2c(=O)n3c4c(cccc42)NCC3)C(=O)N1 (stereo not drawn) [Compound D3, 3-(2-oxo-5,6-dihydro-4H-imidazo[1,5,4-de]quinoxalin-1(2H)-yl)piperidine-2,6-dione] | 0.21 µM
